We go through four compounds from patent publication US20030100772A1, “Oxygen-containing heterocyclic compounds” (priority 2000, published 2003).

Data set [1] addresses T1, recombinant human PDE IV enzyme (HSPDE4A4B) (Homo sapiens, UniProt P27815).
T1 construct: made in house; host or cells: Sf9 insect cells
The data set can be described thus: Inhibition test on recombinant human PDE IV enzyme. Format: biochemical. The following applies: [3H]cAMP 1 μmol/L substrate, read-out: enzyme inhibitory activity. The procedure: Inhibition Test on Recombinant Human PDE IV Enzyme
Human phosphodiesterase cDNA (HSPDE4A4B) was isolated from HL-60 cells. The expected amino acid sequence is the same as that (HSPDE4A5) reported by G. Bolger et al. [Mol. Cell Biol. 13, p. 6558 (1993)]. This recombinant protein was expressed in Sf9 insect cells. The PDE activity was determined by the following two step process according to the method by R. L. Kincaid and V. C. Manganiello [Method. Enzymol., 159, pp. 457-470 (1988)]. Using [^3H]cAMP (final concentration: 1 μmol/L) as a substrate, the reaction was conducted in a standard mixture containing N,N-bis(2-hydroxyethyl)-2-aminoethanesulfonic acid (50 mmol/L, pH 7.2), MgCl2 (1 mmol/L) and soybean trypsin inhibitor (0.1 mg/mL). The reaction was started by addition of the enzyme, and the incubation was conducted at 30° C. for 10 to 30 minutes. The reaction was terminated with hydrochloric acid, and the formed 5′-AMP was completely decomposed with […]. After chromatography with DEAE-Sephadex A-25, the eluted [^3H]-adenosine was counted by a scintillation counter. The test compounds were added after dissolved in DMSO (concentration: 1.7%).

T1 sequence (P27815 whole entry): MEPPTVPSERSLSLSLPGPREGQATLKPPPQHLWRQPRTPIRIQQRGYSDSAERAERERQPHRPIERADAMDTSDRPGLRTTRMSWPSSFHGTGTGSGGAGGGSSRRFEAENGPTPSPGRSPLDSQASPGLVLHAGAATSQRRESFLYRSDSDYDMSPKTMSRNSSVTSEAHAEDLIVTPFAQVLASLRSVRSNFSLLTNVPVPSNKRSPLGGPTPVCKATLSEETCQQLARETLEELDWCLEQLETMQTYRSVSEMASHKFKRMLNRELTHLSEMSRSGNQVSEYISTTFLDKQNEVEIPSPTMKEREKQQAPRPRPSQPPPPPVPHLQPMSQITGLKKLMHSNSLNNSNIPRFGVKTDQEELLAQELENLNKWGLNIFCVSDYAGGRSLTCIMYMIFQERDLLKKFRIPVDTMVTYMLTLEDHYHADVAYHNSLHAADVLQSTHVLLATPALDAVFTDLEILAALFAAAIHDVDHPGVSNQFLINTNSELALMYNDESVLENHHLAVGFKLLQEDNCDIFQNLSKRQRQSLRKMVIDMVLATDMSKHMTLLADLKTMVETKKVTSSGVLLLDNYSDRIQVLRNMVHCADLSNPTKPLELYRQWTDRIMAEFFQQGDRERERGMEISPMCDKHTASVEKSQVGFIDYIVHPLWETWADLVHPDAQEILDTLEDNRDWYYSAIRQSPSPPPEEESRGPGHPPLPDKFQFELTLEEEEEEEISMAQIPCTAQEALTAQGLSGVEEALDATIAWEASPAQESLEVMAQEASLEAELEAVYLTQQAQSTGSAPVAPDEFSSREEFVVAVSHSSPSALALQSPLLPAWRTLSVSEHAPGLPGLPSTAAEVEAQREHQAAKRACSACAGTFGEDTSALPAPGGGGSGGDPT

A word on the melting point: it is the temperature, or range, at which the solid turns liquid. In the case of `COc1ccc(C2(C3CCCCC3=O)CCC(C(=O)O)CC2)c2c1OCCO2` (single isomer, unassigned) [Compound 9a, 4-(Cyclohexanon-2-yl)-4-(8-methoxy-1,4-benzodioxan-5-yl)-cyclohexanecarboxylic Acid], the melting point lay in the range of 243 to 244 °C.

Consider `COc1ccc(C2(C3CCCCC3=O)CCC(C(=O)O)CC2)c2c1OCCO2` (single isomer, unassigned) [Compound 9b, 4-(Cyclohexanon-2-yl)-4-(8-methoxy-1,4-benzodioxan-5-yl)-cyclohexanecarboxylic Acid], for which the melting point is 222 to 223 °C.

`COc1ccc(C2(C3CCCC3=O)CCC(C(=O)O)CC2)c2c1OCCO2` (centres unmarked) [Compound 8, 4-(Cyclopentanon-2-yl)-4-(8-methoxy-1,4-benzodioxan-5-yl)-cyclohexanecarboxylic Acid]: the melting point lay within 241 to 243 °C. In data set [1] (drug concentration of 10 μmol/L), the inhibition at 10 µM was at least 30%.

In the case of `CCOC(=O)C=CC1(c2ccc(OC)c3c2OCCO3)CCC(=O)CC1` [Compound 13, Ethyl 3-[1-(8-methoxy-1,4-benzodioxan-5-yl)-4-oxocyclohexyl]acrylate], in data set [1] (concentration of 1 μmol/L), the inhibition at 1 µM is at least 99%.
